Experimental data from ChEMBL document CHEMBL1201862, “PubChem BioAssay data set” (2004).
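Following 48 hours of exposure in 96-well plates, responses at five concentrations were used to interpolate endpoints linearly. The concentration for 50% growth inhibition is given as GI50.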 Active and inactive are the calls of the source. Rule as the data show it: active = GI50 up to about 1.1 µM and inactive = higher.

Columns and labels:
Experiment in all cases: NCI tumour cell line growth inhibition, 48 h
786-0 = tested on: 786-0
A498 = tested on: A498
A549 = tested on: A549
ACHN = tested on: ACHN
CAKI-1 = tested on: CAKI-1
CCRF-CEM = tested on: CCRF-CEM
COLO 205 = tested on: COLO 205
DLD-1 = tested on: DLD-1
DMS-114 = tested on: DMS-114
DMS-273 = tested on: DMS-273
EKVX = tested on: EKVX
HCC 2998 = tested on: HCC 2998
HCT-116 = tested on: HCT-116
HCT-15 = tested on: HCT-15
HL-60 = tested on: HL-60
HOP-18 = tested on: HOP-18
HOP-62 = tested on: HOP-62
HOP-92 = tested on: HOP-92
HT-29 = tested on: HT-29
IGROV-1 = tested on: IGROV-1
K562 = tested on: K562
KM-20L2 = tested on: KM-20L2
KM12 = tested on: KM12
LOX IMVI = tested on: LOX IMVI
LXFL 529 = tested on: LXFL 529
M14 = tested on: M14
M19-MEL = tested on: M19-MEL
MOLT-4 = tested on: MOLT-4
Malme-3M = tested on: Malme-3M
NCI-H226 = tested on: NCI-H226
NCI-H23 = tested on: NCI-H23
NCI-H460 = tested on: NCI-H460
NCI-H522 = tested on: NCI-H522
OVCAR-3 = tested on: OVCAR-3
OVCAR-4 = tested on: OVCAR-4
OVCAR-5 = tested on: OVCAR-5
OVCAR-8 = tested on: OVCAR-8
RPMI-8226 = tested on: RPMI-8226
RXF 393 = tested on: RXF 393
SF-268 = tested on: SF-268
SF-295 = tested on: SF-295
SF-539 = tested on: SF-539
SK-MEL-28 = tested on: SK-MEL-28
SK-MEL-2 = tested on: SK-MEL-2
SK-MEL-5 = tested on: SK-MEL-5
SK-OV-3 = tested on: SK-OV-3
SN12C = tested on: SN12C
SNB-19 = tested on: SNB-19
SNB-75 = tested on: SNB-75
SNB-78 = tested on: SNB-78
SR = tested on: SR
SW-620 = tested on: SW-620
TK-10 = tested on: TK-10
U-251 = tested on: U-251
UACC-257 = tested on: UACC-257
UACC-62 = tested on: UACC-62
UO-31 = tested on: UO-31

O=c1oc2c(O)c(O)c(O)c3c(=O)oc4c(O)c(O)cc1c4c23 [FLAVELLAGIC ACID] was tested, and the GI50 (786-0) was 62.8 µM (inactive), the GI50 (A498) was > 100 µM (inactive) and the GI50 (A549) was > 100 µM (inactive). The GI50 (ACHN) was 73.1 µM (inactive), the GI50 (CAKI-1) was > 100 µM (inactive) and the GI50 (CCRF-CEM) was 29.2 µM (inactive). For the same compound, the GI50 (COLO 205) was 99.5 µM (inactive), the GI50 (DLD-1) was > 100 µM (inactive) and the GI50 (DMS-114) was 29.7 µM (inactive). The GI50 (DMS-273) was 85.1 µM (inactive), the GI50 (EKVX) was > 100 µM (inactive) and the GI50 (HCC 2998) was > 100 µM (inactive). The GI50 (HCT-116) was 89.9 µM (inactive), the GI50 (HCT-15) was over 100 µM and the GI50 (HL-60) was 36.6 µM (inactive). For the same compound, the GI50 (HOP-18) was > 100 µM (inactive), the GI50 (HOP-62) was > 100 µM (inactive) and the GI50 (HOP-92) was > 100 µM (inactive). For the same compound, the GI50 (HT-29) was 39.5 µM (inactive), the GI50 (IGROV-1) was > 100 µM (inactive) and the GI50 (K562) was 25.6 µM (inactive). The GI50 (KM-20L2) was > 100 µM (inactive), the GI50 (KM12) was > 100 µM (inactive) and the GI50 (LOX IMVI) was 18 µM (inactive). For the same compound, the GI50 (LXFL 529) was 73.1 µM (inactive), the GI50 (M14) was > 100 µM (inactive) and the GI50 (M19-MEL) was 9.79 µM (inactive). For the same compound, the GI50 (MOLT-4) was 25.9 µM (inactive), the GI50 (Malme-3M) was > 100 µM (inactive) and the GI50 (NCI-H226) was 83 µM (inactive). The GI50 (NCI-H23) was > 100 µM (inactive), the GI50 (NCI-H460) was > 100 µM (inactive) and the GI50 (NCI-H522) was 46.1 µM (inactive). The GI50 (OVCAR-3) was 61 µM (inactive), the GI50 (OVCAR-4) was 16.2 µM (inactive) and the GI50 (OVCAR-5) was > 100 µM (inactive). The GI50 (OVCAR-8) was 71.4 µM (inactive), the GI50 (RPMI-8226) was > 100 µM (inactive) and the GI50 (RXF 393) was > 100 µM (inactive). The GI50 (SF-268) was > 100 µM (inactive), the GI50 (SF-295) was 23.8 µM (inactive) and the GI50 (SF-539) was > 100 µM (inactive). For the same compound, the GI50 (SK-MEL-28) was > 100 µM (inactive), the GI50 (SK-MEL-2) was > 100 µM (inactive) and the GI50 (SK-MEL-5) was > 100 µM (inactive). The GI50 (SK-OV-3) was > 100 µM (inactive), the GI50 (SN12C) was 18.6 µM (inactive) and the GI50 (SNB-19) was > 100 µM (inactive). For the same compound, the GI50 (SNB-75) was 47.6 µM (inactive), the GI50 (SNB-78) was > 100 µM (inactive) and the GI50 (SR) was > 100 µM (inactive). For the same compound, the GI50 (SW-620) was 97.7 µM (inactive), the GI50 (TK-10) was > 100 µM (inactive) and the GI50 (U-251) was 19.3 µM (inactive). For the same compound, the GI50 (UACC-257) was > 100 µM (inactive), the GI50 (UACC-62) was 57.3 µM (inactive) and the GI50 (UO-31) was 38.4 µM (inactive).
